Columns and labels:
[1] = target: T1, NMDAR2A expressing HEK cell membranes (Homo sapiens, UniProt Q05586+Q12879); test: NMDAR agonist assay, [3H]MK-801 binding, NMDAR2A; format: biochemical; set-up: key to NMDAR2A B: log EC50: 0=−; ≥1×10^−9 M (e.g., −8)=+; <1×10^−9 M (e.g., −10)=++; settings: 0.25 h, 50 μM glutamate; read-out: NMDAR2A A: % maximal [3H]MK-801 binding relative to 1 mM glycine
T1 construct: expressed in transfected cells; host or cells: HEK cells (membrane extract)
Protocol: (§1) Assays were conducted as described by Moskal et al., “GLYX-13: a monoclonal antibody-derived peptide that acts as an N-methyl-D-aspartate receptor modulator,” Neuropharmacology, 49, 1077-87, 2005. These studies were designed to determine if the test compounds act to facilitate NMDAR activation in NMDAR2A, NMDAR2B, NMDAR2C or NMDAR2D expressing HEK cell membranes as measured by increases in [^3H]MK-801 binding.
(§2) In the assay, 300 μg of NMDAR expressing HEK cell membrane extract protein was preincubated for 15 minutes at 25° C. in the presence of saturating concentrations of glutamate (50 μM) and varying concentrations of test compound (1×10^−15 M-1×10^−7 M), or 1 mM glycine. Following the addition of 0.3 μCi of [^3H]MK-801 (22.5 Ci/mmol), reactions were again incubated for 15 minutes at 25° C. (nonequilibrium conditions). Bound and free [^3H]MK-801 were separated via rapid filtration using a Brandel apparatus.
(§3) In analyzing the data, the DPM (disintegrations per minute) of [^3H]MK-801 remaining on the filter were measured for each concentration of test compound or for 1 mM glycine. The DPM values for each concentration of a ligand (N=2) were averaged. The baseline value was determined from the best fit curve of the DPM values modeled using the GraphPad program and the log(agonist) vs. response(three parameters) algorithm was then subtracted from all points in the dataset. The % maximal [^3H]MK-801 binding was then calculated relative to that of 1 mM glycine: all baseline subtracted DPM values were divided by the average value for 1 mM glycine. The EC50 and % maximal activity were then obtained from the best fit curve of the % maximal [^3H]MK-801 binding data modelled using the GraphPad program and the log(agonist) vs. response(three parameters) algorithm.
(§4) The tables below summarize the results for the wild type NMDAR agonists NMDAR2A, NMDAR2B, NMDAR2C, and NMDAR2D, and whether the compound is not an agonist (−), is an agonist (+), or is a strong agonist (++), where column A is based on the % maximal [^3H]MK-801 binding relative to 1 mM glycine (−=0; <100%=+; and >100%=++); and column B is based on log EC50 values (0=−; ≥1×10^−9 M (e.g., −8)=+; and <1×10^−9 M (e.g., −10)=++).

[2] = target: T2, NMDAR2A expressing HEK cell membranes (Homo sapiens, UniProt Q12879); test: NMDAR agonist assay, [3H]MK-801 binding, NMDAR2A; format: biochemical; set-up: key to NMDAR2A B: log EC50: 0=−; ≥1×10^−9 M (e.g., −8)=+; <1×10^−9 M (e.g., −10)=++; settings: 50 μM glutamate
T2 construct: expressed in transfected cells; host or cells: HEK cells (membrane extract)
Protocol: as §1, §2, §3, §4

[3] = target: T3, NMDAR2B expressing HEK cell membranes (Homo sapiens, UniProt Q05586+Q13224); test: NMDAR agonist assay, [3H]MK-801 binding, NMDAR2B; format: biochemical; settings: 50 μM glutamate; for EC50: read-out: NMDAR2B B: log EC50 (converted); for Emax: 0.25 h, read-out: NMDAR2B A: % maximal [3H]MK-801 binding relative to 1 mM glycine
T3 construct: expressed in transfected cells; host or cells: HEK cells (membrane extract)
Protocol: as §1, §2, §3, §4

[4] = target: T4, NMDAR2C expressing HEK cell membranes (Homo sapiens, UniProt Q14957); test: NMDAR agonist assay, [3H]MK-801 binding, NMDAR2C; format: biochemical; settings: 50 μM glutamate
T4 construct: expressed in transfected cells; host or cells: HEK cells (membrane extract)
Protocol: as §1, §2
as §3, with “algorithm. […]” for “algorithm.”

[5] = target: T5, NMDAR2D expressing HEK cell membranes (Homo sapiens, UniProt O15399); test: NMDAR agonist assay, [3H]MK-801 binding, NMDAR2D; format: biochemical; settings: 50 μM glutamate
T5 construct: expressed in transfected cells; host or cells: HEK cells (membrane extract)
Protocol: as §1, §2, §3, §4

[6] = target: T6, NMDAR2D expressing HEK cell membranes (Homo sapiens, UniProt O15399+Q05586); test: NMDAR agonist assay, [3H]MK-801 binding, NMDAR2D; format: biochemical; settings: 50 μM glutamate; read-out: NMDAR2D B: log EC50 (converted)
T6 construct: expressed in transfected cells; host or cells: HEK cells (membrane extract)
Protocol: as §1, §2, §3, §4

IV pharmacokinetics = test: IV pharmacokinetics; set-up: species or system Sprague Dawley rats; settings: Sprague Dawley, in vivo, rat, 2 mg/kg, normal saline; for Vd: read-out: Vss
Protocol: Sprague Dawley rats were dosed intravenously using a normal saline formulation containing 2 mg/kg of the compounds identified in the below table. The table below summarizes the results of the IV pharmacokinetics.

[7] = Oral pharmacokinetics (plasma, brain, CSF); format: in vivo, Sprague Dawley rats; settings: rat, per os, 10 mg/kg; for AUC(0-t) / bioavailability / Tmax / Cmax: Sprague Dawley, plasma, po; for Tmax: normal saline
Protocol: In another experiment, Sprague Dawley rats were dosed per os using a normal saline formulation containing 10 mg/kg of the compounds identified in the table below. Plasma, brain, and CSF samples were analyzed at various time points over a 24 hour period. The table below summarizes the results of the oral pharmacokinetics.

Sprague Dawley rats [8] = test: Porsolt forced swim test; format: in vivo
Protocol: A non-clinical in vivo pharmacology study (Porsolt assay) was performed to measure antidepressant-like effects. A negative control (0.5% sodium carboxymethyl cellulose in 0.9% sterile saline vehicle) and a positive control (fluoxetine) are shown for comparison against test compound. The study allowed for the evaluation of the effects of each compound on the Porsolt forced swim test as assessed by the rats' response (reduced floating time) during a 5-minute swimming test.
(§5) Male 2-3 month old Sprague Dawley rats were used (Harlan, Indianapolis, IN). Rats were housed in Lucite cages with aspen wood chip bedding, maintained on a 12:12 light:dark cycle (lights on at 5 AM), and given ad libitum access to Purina lab chow (USA) and tap water throughout the study.
The Porsolt forced swim test adapted for use in rats was performed as described by Burgdorf et al., (The long-lasting antidepressant effects of rapastinel (GLYX-13) are associated with a metaplasticity process in the medial prefrontal cortex and hippocampus. Neuroscience 308:202-211, 2015). Animals were placed in a 46 cm tall×20 cm in diameter clear glass tube filled to 30 cm with tap water (23±1° C.) for 15 min on the first day (habituation) and 5 min on the subsequent test day. Positive control fluoxetine was dosed 3 times (24 h, 5 h and 1 h) prior to testing. Animals were tested 1 h or 24 h post-dosing with the test compounds or vehicle. Animals received a 15 min habituation session 1 day before the 5 min test. Water was changed after every other animal. Animals were videotaped, and floating time as defined as the minimal amount of effort required to keep the animals head above water was scored offline by a blinded experimenter with high inter-rater reliability (Pearson's r>0.9).
Each compound tested at dose level shown. Significance vs. vehicle group for each experiment is marked. […] A compound marked “No” was not statistically significant from vehicle. Data was averaged for test compound and vehicle groups (N approximately 8 per group) and the percent reduction in floating for group treated with test compound relative to group treated with vehicle is shown.

Sprague Dawley rats [9] = test: Bennett model of mechanical analgesia (sciatic nerve chronic constriction injury); format: in vivo; settings: 150 mg/kg PO
Protocol: The Bennett model of mechanical analgesia is used to assess the analgesic effects of compounds as measured by paw withdrawal threshold. Bennett G J, Xie Y K, “A peripheral mononeuropathy in rat that produces disorders of pain sensation like those seen in man,” Pain 33:87-107, 1988. […] Vehicle animals receive the surgery and then receive vehicle rather than test compound. Animals were tested 1 hr, 24 h and 1 wk post-test compound or vehicle administration.
as §5, with “used. Harlan was the supplier for all studies.” for “used (Harlan, Indianapolis, IN).”
Rats were anesthetized using inhaled isoflurane (2.5%). Sciatic nerve chronic constriction nerve injury surgery was performed as previously described (Bennett and Xie, 1988). An incision (˜1.5 cm in length) was made with a scalpel blade dorsally through skin on the right hind limb, parallel and posterior to femur. Using a small pointed hemostat, the biceps femoris and gluteus superficialis muscles were separated. Using curved blunt forceps, the common sciatic nerve was isolated and exposed. For the mechanical analgesia studies, the whole sciatic nerve was ligated. Using hemostats/forceps and chromic gut (5-0), the nerve was loosely ligated with a square knot; 3 ligatures, 1 mm apart were placed on the nerve. […] Testing occurred approximately 2 weeks post-surgery.
During testing, rats were acclimated to the surface of a suspended wire mesh grid (1 cm×1 cm, with the wire being 0.3 cm in diameter) for 15-20 min. Starting from the smallest, each Von Frey filament was pressed perpendicularly to the plantar surface of the affected (ipsilateral) hind paw until slightly bent and then held for 6 second. If an obvious hind paw withdrawal or a flinching behavior immediately after the withdrawal of the filament was not observed, the next larger filament was used in the same manner. In case of a response, a lower filament was used. This was repeated until six responses were collected.
For all studies, animals were baselined prior to study start to test for allodynia (defined as a paw withdrawal threshold under 5). A subset of animals was tested with gabapentin (150 mg/kg, PO) to ensure at least 50% analgesia. Once it was confirmed animals were ready for study initiation, animals were balanced across groups. All study investigators were blind to treatment conditions. Animals were dosed with 0.1, 1, 10, or 30 mg/kg of test compound via oral gavage (PO), control sets of animals were dosed with gabapentin (150 mg/kg, PO) or vehicle (0.5% Na-CMC in 0.9% sterile saline, PO). Testing occurred 1 h post-dosing with animals retested 24 hrs and 1 week post-dosing. The percent analgesia calculations for each animal were made using the following equation: % analgesia=[(log(x)−y)/((log (z)−y)]*100, where x=the paw withdrawal threshold for the drug-treated animal in grams, y=the average of the log(x) values for the vehicle treated group, and z=the paw withdrawal threshold for naïve animals in grams (historical value of 15 used). The results for Compound AA-2, where the percentage of analgesia is measured at 1 hour, 24 hours, and 1 week after compound administration are as follows: for 0.1 mg/kg dose: 22.3% at 1 h, 1.6% at 24 h, and 2.3% at 1 wk; for 1 mg/kg dose: 19.2% at 1 h, 10.7% at 24 h, and 11.0% at 1 wk; for 10 mg/kg dose: 38.1% at 1 h, 24.3% at 24 h, and 41.4% at 1 wk; and for 30 mg/kg dose: 24.4% at 1 h, 8.7% at 24 h, and 34.5% at 1 wk.

[10] = 1 h post-dose, 0.1 mg/kg, relative to vehicle group
[11] = 24 h post-dose, 0.1 mg/kg, relative to vehicle group
[12] = 1 h post-dose, 20 mg/kg, dosed 3 times (24 h, 5 h and 1 h) prior to testing

T3 sequence (Q13224 27-1484, other chains not shown): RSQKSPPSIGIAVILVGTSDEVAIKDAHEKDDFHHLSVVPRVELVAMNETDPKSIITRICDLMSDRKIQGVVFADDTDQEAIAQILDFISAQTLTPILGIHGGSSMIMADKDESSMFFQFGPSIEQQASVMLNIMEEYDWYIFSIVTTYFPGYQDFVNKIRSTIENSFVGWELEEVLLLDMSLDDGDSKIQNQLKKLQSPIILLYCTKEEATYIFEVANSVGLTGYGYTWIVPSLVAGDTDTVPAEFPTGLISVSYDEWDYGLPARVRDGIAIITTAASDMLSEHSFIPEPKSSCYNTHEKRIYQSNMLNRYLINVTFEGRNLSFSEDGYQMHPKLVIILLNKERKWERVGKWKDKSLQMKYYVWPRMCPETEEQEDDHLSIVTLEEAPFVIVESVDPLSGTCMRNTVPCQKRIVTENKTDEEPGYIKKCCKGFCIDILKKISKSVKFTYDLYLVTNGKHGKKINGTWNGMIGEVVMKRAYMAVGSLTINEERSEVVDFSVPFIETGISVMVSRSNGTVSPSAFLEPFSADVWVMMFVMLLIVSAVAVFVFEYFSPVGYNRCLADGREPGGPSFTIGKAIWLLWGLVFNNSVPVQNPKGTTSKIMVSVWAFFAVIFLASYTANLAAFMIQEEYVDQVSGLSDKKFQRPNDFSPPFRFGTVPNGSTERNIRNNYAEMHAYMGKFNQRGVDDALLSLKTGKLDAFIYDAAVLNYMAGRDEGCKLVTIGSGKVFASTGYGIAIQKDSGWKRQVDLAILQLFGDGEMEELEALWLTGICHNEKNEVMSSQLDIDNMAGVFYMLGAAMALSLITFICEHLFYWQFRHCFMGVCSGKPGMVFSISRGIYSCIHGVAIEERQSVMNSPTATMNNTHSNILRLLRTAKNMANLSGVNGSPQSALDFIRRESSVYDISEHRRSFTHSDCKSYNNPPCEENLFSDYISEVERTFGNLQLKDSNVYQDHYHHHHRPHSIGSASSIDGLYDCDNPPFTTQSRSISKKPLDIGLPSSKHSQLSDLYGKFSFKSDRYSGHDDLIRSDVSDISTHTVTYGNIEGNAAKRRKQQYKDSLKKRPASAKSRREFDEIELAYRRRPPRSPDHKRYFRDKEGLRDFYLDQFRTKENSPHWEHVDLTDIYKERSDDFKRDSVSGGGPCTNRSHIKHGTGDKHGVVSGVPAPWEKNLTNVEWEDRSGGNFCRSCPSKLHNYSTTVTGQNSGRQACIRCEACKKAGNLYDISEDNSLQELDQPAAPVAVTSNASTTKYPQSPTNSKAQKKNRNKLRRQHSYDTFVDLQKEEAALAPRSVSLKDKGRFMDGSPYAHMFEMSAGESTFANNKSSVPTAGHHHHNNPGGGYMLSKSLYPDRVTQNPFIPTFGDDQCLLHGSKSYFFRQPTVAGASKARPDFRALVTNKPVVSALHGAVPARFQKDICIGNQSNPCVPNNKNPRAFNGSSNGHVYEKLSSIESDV
T6 sequence (O15399 28-1336, other chains not shown): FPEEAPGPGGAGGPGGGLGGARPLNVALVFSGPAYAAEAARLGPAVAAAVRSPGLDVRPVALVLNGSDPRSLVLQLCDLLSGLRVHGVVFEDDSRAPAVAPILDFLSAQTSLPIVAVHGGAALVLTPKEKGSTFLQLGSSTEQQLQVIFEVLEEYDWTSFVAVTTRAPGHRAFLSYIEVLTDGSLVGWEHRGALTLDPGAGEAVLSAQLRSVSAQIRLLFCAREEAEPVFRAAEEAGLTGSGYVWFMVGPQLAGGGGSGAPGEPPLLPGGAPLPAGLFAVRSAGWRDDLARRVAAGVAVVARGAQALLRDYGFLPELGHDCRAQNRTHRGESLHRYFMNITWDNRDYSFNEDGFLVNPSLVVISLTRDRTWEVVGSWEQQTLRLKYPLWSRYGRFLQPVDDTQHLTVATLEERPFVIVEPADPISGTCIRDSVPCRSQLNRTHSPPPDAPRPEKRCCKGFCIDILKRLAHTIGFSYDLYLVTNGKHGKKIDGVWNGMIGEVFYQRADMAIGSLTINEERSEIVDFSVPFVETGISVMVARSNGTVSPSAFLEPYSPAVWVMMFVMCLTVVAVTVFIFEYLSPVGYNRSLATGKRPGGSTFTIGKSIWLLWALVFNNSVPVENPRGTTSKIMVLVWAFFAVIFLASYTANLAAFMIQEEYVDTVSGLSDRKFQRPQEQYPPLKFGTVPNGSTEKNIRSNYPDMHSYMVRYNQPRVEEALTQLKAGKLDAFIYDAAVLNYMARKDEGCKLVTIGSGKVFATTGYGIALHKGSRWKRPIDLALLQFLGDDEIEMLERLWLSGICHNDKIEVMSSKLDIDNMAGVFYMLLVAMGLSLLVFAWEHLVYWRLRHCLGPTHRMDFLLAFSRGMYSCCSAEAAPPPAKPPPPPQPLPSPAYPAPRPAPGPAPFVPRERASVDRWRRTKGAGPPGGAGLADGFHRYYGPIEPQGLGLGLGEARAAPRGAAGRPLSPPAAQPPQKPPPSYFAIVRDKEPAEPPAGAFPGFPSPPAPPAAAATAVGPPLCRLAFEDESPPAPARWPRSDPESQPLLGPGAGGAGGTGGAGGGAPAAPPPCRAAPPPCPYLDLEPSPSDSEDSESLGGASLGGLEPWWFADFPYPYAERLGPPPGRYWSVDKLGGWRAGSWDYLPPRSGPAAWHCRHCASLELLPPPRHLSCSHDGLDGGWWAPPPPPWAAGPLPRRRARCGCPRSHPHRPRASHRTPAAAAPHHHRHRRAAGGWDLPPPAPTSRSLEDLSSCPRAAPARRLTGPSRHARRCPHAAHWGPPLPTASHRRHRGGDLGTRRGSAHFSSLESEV
T5 sequence (O15399 28-1336, other chains not shown): as above
T4 sequence (Q14957 20-1233, other chains not shown): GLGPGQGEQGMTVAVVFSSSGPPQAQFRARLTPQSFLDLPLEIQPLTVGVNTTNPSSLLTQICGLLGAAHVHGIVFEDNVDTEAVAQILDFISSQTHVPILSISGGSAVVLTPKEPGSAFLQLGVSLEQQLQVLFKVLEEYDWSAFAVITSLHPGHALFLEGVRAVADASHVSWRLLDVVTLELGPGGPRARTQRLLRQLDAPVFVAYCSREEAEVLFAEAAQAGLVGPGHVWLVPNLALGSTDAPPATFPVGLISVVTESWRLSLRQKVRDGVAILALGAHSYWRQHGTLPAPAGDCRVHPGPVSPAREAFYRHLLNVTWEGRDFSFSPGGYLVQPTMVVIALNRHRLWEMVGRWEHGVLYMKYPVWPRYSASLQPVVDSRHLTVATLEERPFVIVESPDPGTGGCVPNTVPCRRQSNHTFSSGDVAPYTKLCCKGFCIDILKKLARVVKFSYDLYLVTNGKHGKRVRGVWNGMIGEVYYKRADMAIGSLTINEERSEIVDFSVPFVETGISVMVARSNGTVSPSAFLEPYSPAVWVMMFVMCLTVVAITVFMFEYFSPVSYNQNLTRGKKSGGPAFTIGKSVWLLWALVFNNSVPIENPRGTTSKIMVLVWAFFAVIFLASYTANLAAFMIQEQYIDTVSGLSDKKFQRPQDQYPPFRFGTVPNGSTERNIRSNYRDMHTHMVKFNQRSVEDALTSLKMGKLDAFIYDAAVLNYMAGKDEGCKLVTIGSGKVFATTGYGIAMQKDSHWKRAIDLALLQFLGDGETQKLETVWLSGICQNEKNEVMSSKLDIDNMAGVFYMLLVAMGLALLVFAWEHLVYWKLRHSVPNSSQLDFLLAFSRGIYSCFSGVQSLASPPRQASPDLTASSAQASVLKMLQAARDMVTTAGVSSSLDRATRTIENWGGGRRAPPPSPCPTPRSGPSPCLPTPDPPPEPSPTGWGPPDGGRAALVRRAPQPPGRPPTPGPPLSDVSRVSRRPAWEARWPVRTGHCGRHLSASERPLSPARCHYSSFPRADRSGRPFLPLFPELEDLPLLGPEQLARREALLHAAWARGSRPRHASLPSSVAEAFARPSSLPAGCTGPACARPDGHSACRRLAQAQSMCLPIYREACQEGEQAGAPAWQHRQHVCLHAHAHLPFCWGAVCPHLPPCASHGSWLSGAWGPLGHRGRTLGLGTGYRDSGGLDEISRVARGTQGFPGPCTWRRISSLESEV

Compound	Emax [1]	NMDAR2A B: log EC50 [2]	EC50 [3]	Emax [3]	NMDAR2C A: % maximal [3H]MK-801 binding relative to 1 mM glycine [4]	NMDAR2D A: % maximal [3H]MK-801 binding relative to 1 mM glycine [5]	EC50 [6]	AUC(0-t) (IV pharmacokinetics)	C0 (IV pharmacokinetics)	clearance (IV pharmacokinetics)	half-life (IV pharmacokinetics)	Vd (IV pharmacokinetics)	AUC(0-t) [7]	bioavailability [7]	Tmax [7]	Cmax [7]	Significance vs. vehicle (Sprague Dawley rats [8]; 1 h post-dose, 0.1 mg/kg)	% reduction in float time (Sprague Dawley rats [8]; [10])	Significance vs. vehicle (Sprague Dawley rats [8]; 24 h post-dose, 0.1 mg/kg)	% reduction in float time (Sprague Dawley rats [8]; [11])	also measured
COc1ccc(CN2CC3(CCNC(=O)C3)C2=O)cc1 (racemic) [AA-rac, 2-(4-methoxybenzyl)-2,7-diazaspiro[3.5]nonane-1,6-dione]	0%	−	< 1 nM	< 100%	− (−=0)	+ (<100%=+)	< 1 nM	6300 ng·h/mL	5790 ng/mL	5.28 mL/min/kg	199 min	0.56 L/kg	17800 ng·h/mL	57%	40.2 min	5810 ng/mL	Yes (found to be statistically significant (p<=0.05) from vehicle at dose level shown)	77.4%	Yes (found to be statistically significant (p<=0.05) from vehicle at dose level shown)	74.40%	CSF Cmax ([7]; CSF): 1466.9 ng/mL; Brain Cmax ([7]; brain): 951 ng/mL
CNCCC(Oc1ccc(C(F)(F)F)cc1)c1ccccc1 (centres unmarked) [Fluoxetine, fluoxetine, reference compound]																					% reduction in float time (Sprague Dawley rats [8]; [12]): 54%; Significance vs. vehicle (Sprague Dawley rats [8]; [12]): Yes (found to be statistically significant (p<=0.05) from vehicle at dose level shown)
NCC1(CC(=O)O)CCCCC1 [gabapentin, reference compound]																					% analgesia, for the study (Sprague Dawley rats [9]; 1 week post-administration): under 5%; % analgesia, example (typical) control value (Sprague Dawley rats [9]; 1 wk): 0%; % analgesia, example (typical) control value (Sprague Dawley rats [9]; 1 h): 72%; % analgesia, for the study (Sprague Dawley rats [9]; 1 h post-administration): at least 50%; % analgesia, example (typical) control value (Sprague Dawley rats [9]; 24 h): 16%; % analgesia, for the study (Sprague Dawley rats [9]; 24 h post-administration): under 5%
COc1ccc(CN2C[C@]3(CCNC(=O)C3)C2=O)cc1 [AA-1, 2-(4-methoxybenzyl)-2,7-diazaspiro[3.5]nonane-1,6-dione]	0%	−	< 1 nM	< 100%	− (−=0)	+ (<100%=+)	≥ 1 nM	3430 ng·h/mL	2340 ng/mL	9.69 mL/min/kg	67.2 min	0.76 L/kg	15500 ng·h/mL	90%	19.8 min	8920 ng/mL	Yes (found to be statistically significant (p<=0.05) from vehicle at dose level shown)	74.4%	Yes (found to be statistically significant (p<=0.05) from vehicle at dose level shown)	69.50%	

From patent publication US12084444B2, “Spiro-lactam NMDA modulators and methods of using same” (Tenacia Biotechnology (Hong Kong) Co., Limited, priority 2016, dated 2024)
